How the values were obtained:
[1] = Metabolism in vitro of MPTDI, human hepatic microsomes (HPLC-MS profile); assay type: in vitro ADME; conditions: incubation of MPTDI with human hepatic microsomes
Procedure: (§1) The profile and the identification of the metabolites of MPTDI were obtained after incubation of the product with human hepatic microsomes. The results were compared with those obtained on rat hepatic microsomes. The metabolic profiles obtained by HPLC coupled to a mass spectrometer in these two species are represented in FIG. 1. In some cases, the mass spectra obtained were compared with those of reference substances synthesized by the chemical route. It is deduced therefrom that the profiles obtained on human and rat microsomes are similar: Table 1 collates the measured proportions of the metabolites for these two species.

[2] = Metabolism in vitro of MPTDI, rat hepatic microsomes (HPLC-MS profile); assay type: in vitro ADME; conditions: incubation of MPTDI with rat hepatic microsomes
Procedure: as §1

Compound	Proportions (%) of the metabolites obtained on human hepatic microsomes [1]	Proportions (%) of the metabolites obtained on rat hepatic microsomes [2]	melting point
Cc1cc2c3c(c1)C(c1ccccc1)=N[C@@H](NC(=O)c1ccncc1)C(=O)N3CC2 [MPTDI, (3R)-N-(9-methyl-4-oxo-1-phenyl-3,4,6,7-tetrahydro[1,4]diazepino[6,7,1-hi]indol-3-yl)isonicotinamide, reference compound]	79%	38.2%	–
O=C(NC1N=C(c2ccccc2)c2cc(CO)cc3c2N(CC3)C1=O)c1ccncc1 (centres unmarked) [OH on 9-CH3, N-(9-hydroxymethyl-4-oxo-1-phenyl-3,4,6,7-tetrahydro[1,4]diazepino[6,7,1-hi]indol-3-yl)isonicotinamide]	4.2%	24.3%	260 °C
